From patent publication US10959925B2, “Hair cosmetic composition” (KAO CORPORATION, priority 2016, dated 2021)

Assay: physchem

logP: -0.41
SMILES: CC1COC(=O)O1 (stereo not shown) [propylene carbonate]
